What was measured:
Assay in all cases: challenge test, germ count by Agar plates method
Assay type in all cases: cell-based
Conditions in all cases: 8% aqueous suspension
[1] = tested on: Staphylococcus aureus ATCC 6538
Protocol: (§1) A standard procedure to measure the anti-microbial activity of substances was used (challenge tests). A suspension of test organisms (10^5 to 10^6 germs/ml) is inoculated into a recipient containing already the substance to be tested. Samples of the inoculated suspension are taken and the number of germs is measured thanks to the Agar plates method. Germ counts is performed at t=0, t=24 h after the inoculation, t=48 h after the inoculation, t=7 days after the inoculation, t=14 days after the inoculation.
(§2) Sterile water containing 8% w/w of treated and untreated carriers were each investigated.

[2] = tested on: Candida albicans ATCC 10231
Protocol: as §1, §2

[3] = tested on: Pseudomonas aeruginosa ATCC 9027
Protocol: as §1, §2

Escheria coli ATCC8739 = tested on: Escheria coli ATCC8739
Protocol: as §1, §2

silver oxide [0.02% Ag2O]
0 germs/ml: Germs Number/ml after 24 h ([1]; 24 h) | Germs Number/ml after 48 h ([1]; 48 h) | Germs Number/ml after 14 d ([1]; 14 d) | Germs Number/ml after 48 h ([2]; 48 h) | Germs Number/ml after 7 d ([2]; 7 d) | Germs Number/ml after 14 d ([2]; 14 d) | Germs Number/ml after 24 h ([3]; 24 h) | Germs Number/ml after 48 h ([3]; 48 h) | Germs Number/ml after 7 d ([3]; 7 d) | Germs Number/ml after 14 d ([3]; 14 d) | Germs Number/ml after 24 h (Escheria coli ATCC8739; 24 h) | Germs Number/ml after 48 h (Escheria coli ATCC8739; 48 h) | Germs Number/ml after 7 d (Escheria coli ATCC8739; 7 d) | Germs Number/ml after 14 d (Escheria coli ATCC8739; 14 d)

Reference: patent publication US20060246149A1, “Antimicrobial pigments” (priority 2003, published 2006)
